Structures are written as SMILES.

For the test, the target named is T1, ALK 5 (Homo sapiens, UniProt P36897).
T1 sequence (P36897 34-503): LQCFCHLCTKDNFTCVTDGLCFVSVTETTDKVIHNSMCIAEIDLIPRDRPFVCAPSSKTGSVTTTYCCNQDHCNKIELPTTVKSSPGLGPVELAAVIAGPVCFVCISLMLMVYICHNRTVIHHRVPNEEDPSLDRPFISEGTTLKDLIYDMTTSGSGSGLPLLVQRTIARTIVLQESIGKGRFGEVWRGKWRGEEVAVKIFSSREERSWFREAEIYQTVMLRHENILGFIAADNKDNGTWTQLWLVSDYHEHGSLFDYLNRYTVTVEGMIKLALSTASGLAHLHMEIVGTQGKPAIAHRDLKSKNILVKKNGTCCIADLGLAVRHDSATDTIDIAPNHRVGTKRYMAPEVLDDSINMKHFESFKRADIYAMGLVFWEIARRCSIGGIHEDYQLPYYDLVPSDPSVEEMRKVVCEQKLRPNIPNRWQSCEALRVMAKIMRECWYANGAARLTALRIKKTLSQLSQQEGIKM
Kind of test: In vitro kinase assay (ALK5 IC50, LanthaScreen Terbium labeled TR-FRET). In kind it is biochemical. As to conditions: TGF-β kinase 6 nM, ATP 10 μM, read-out: Enzyme Activity ALK 5 IC50. The method, then:
Compounds of the invention were screened in an in vitro kinase assay against ALK 5, a members of the TGF-β family of Ser/Thr kinases. Standard kinase testing conditions and techniques were employed. IC50 values of compounds against TGF-ß kinase was determined by LanthaScreen™ Terbium Labeled TR-FRET assay. Kinase assays were performed in 1X kinase buffer (# PV6135, Invitrogen, Life Technologies Grand Island, N.Y.) where total reaction volume was 10 μL in low-volume 384-well plates (#4511, Corning). Serially diluted compounds (3-fold) were incubated with TGF-β kinase (6 nM) for 10 min, following which a mixture of ATP (10 μM) (# A1852, Sigma, St-Louis, Mo.) and fluorescent-PolyGT substrate (200 nM); Cat # PV3610, Invitrogen, Life Technologies Grand Island, N.Y.) was added and incubated in dark at room temperature for 1 h. After 1 h, 10 μL stop solution containing Terbium labeled antibody (4 nM; Cat # PV3529, Invitrogen, Life Technologies Grand Island, N.Y.) and EDTA (# E5134, Sigma, St-Louis, Mo.; 20 mM) in TR-FRET dilution buffer (Cat # PV3574, Invitrogen, Life Technologies Grand Island, N.Y.) was added. Readings were taken in a Synergy Neo Plate reader (BioTek, Winooski) at single excitation of 340 nm and Dual emission at 495 nm and 520 nm respectively.
The % activity of test samples was calculated as (Sample-Min)×100/(Max −Min). [Max: DMSO control, complete reaction with enzyme with DMSO and Min: No enzyme with DMSO]. Percent inhibition (100-% activity) was fitted to the “four-parameter logistic model” in XLfit for determination of IC50 values.
For the compound `CC(O)CNC(=O)c1cnccc1Nc1c[nH]c(=O)c(-c2cc(Cl)ccc2F)c1` (centres unmarked) [Compound 1.1, 4-((5-(5-chloro-2-fluorophenyl)-6-oxo-1,6-dihydropyridin-3-yl)amino)-N-(2-hydroxypropyl)nicotinamide], the half-inhibitory concentration (IC50) was 2 to 5 µM.
On to `C[C@@H](CO)NC(=O)c1cnccc1Nc1c[nH]c(=O)c(-c2cc(Cl)ccc2F)c1` [Compound 1.2, (S)-4-((5-(5-chloro-2-fluorophenyl)-6-oxo-1,6-dihydropyridin-3-yl)amino)-N-(1-hydroxypropan-2-yl)nicotinamide], for which the IC50 is more than 5 µM.
Then `CC(C)c1[nH]c(=O)c(-c2ccccc2F)cc1Nc1ccncc1C(=O)NC[C@H](C)O` [Compound 1.3, (S)-4-((5-(2-fluorophenyl)-2-isopropyl-6-oxo-1,6-dihydropyridin-3-yl)amino)-N-(2-hydroxypropyl)nicotinamide], with 2 to 5 µM.
Regarding `CC(C)c1[nH]c(=O)c(-c2cc(Cl)ccc2F)cc1Nc1ccncc1C(=O)N[C@@H](C)CO` [Compound 1.6], the IC50 was 0.5 to 2 µM.
In the case of `C[C@H](O)CNC(=O)c1cnccc1Nc1cc(-c2cc(Cl)ccc2F)c(=O)n(C)c1` [Compound 1.7, (S)-4-((5-(5-chloro-2-fluorophenyl)-1-methyl-6-oxo-1,6-dihydropyridin-3-yl)amino)-N-(2-hydroxypropyl)nicotinamide], the IC50 is more than 5 µM.
Then `C[C@@H](CO)NC(=O)c1cnccc1Nc1cc(-c2cc(Cl)ccc2F)c(=O)n(C)c1` [Compound 1.8, (S)-4-((5-(5-chloro-2-fluorophenyl)-1-methyl-6-oxo-1,6-dihydropyridin-3-yl)amino)-N-(1-hydroxypropan-2-yl)nicotinamide], with more than 5 µM.
As to `C[C@H](O)CNC(=O)c1cnccc1Nc1cc(-c2cc(Cl)ccc2F)c(=O)[nH]c1N(C)C` [Compound 1.9, (S)-4-((5-(5-chloro-2-fluorophenyl)-2-(dimethylamino)-6-hydroxypyridin-3-yl)amino)-N-(2-hydroxypropyl)nicotinamide], the IC50 lay in the range of 2 to 5 µM.
As for `CN(C)c1[nH]c(=O)c(-c2cc(Cl)ccc2F)cc1Nc1ccncc1C(=O)NC(CO)CO` [Compound 1.11], the IC50 was more than 5 µM.
As for `Cc1cccc(-c2cc(Nc3ccnc4[nH]ccc34)c(N(C)C)[nH]c2=O)n1` [Compound 1.13, 5′-((1H-pyrrolo[2,3-b]pyridin-4-yl)amino)-6′-(dimethylamino)-6-methyl-[2,3′-bipyridin]-2′(1′H)-one], the IC50 was in the range of 2 to 5 µM.
For `CN(C)c1[nH]c(=O)c(-c2cc(Cl)ccc2F)cc1Nc1ccncc1` [Compound 1.14, 3-(5-chloro-2-fluorophenyl)-6-(dimethylamino)-5-(pyridin-4-ylamino)pyridin-2(1H)-one], the IC50 was more than 5 µM.
Then `CN(C)c1[nH]c(=O)c(-c2cc(Cl)ccc2F)cc1Nc1ccncc1C(F)(F)F` [Compound 1.15, 3-(5-chloro-2-fluorophenyl)-6-(dimethylamino)-5-((3-(trifluoromethyl)pyridin-4-yl)amino)pyridin-2(1H)-one], with more than 5 µM; and `CN(C)c1[nH]c(=O)c(-c2cc(Cl)ccc2F)cc1Nc1ccnc2ccccc12` [Compound 1.16, 3-(5-chloro-2-fluorophenyl)-6-(dimethylamino)-5-(quinolin-4-ylamino)pyridin-2(1H)-one], with more than 5 µM; and `C[C@@H](CO)NC(=O)c1cnccc1Nc1cc(-c2cc(Cl)ccc2F)c(=O)n(C)c1N(C)C` [Compound 1.17, (S)-4-((5-(5-chloro-2-fluorophenyl)-2-(dimethylamino)-1-methyl-6-oxo-1,6-dihydropyridin-3-yl)amino)-N-(1-hydroxypropan-2-yl)nicotinamide], with 2 to 5 µM.
As for `CN1CCn2c1c(Nc1ccnc3[nH]ccc13)cc(-c1cc(Cl)ccc1F)c2=O` [Compound 1.18, 8-((1H-pyrrolo[2,3-b]pyridin-4-yl)amino)-6-(5-chloro-2-fluorophenyl)-1-methyl-2,3-dihydroimidazo[1,2-a]pyridin-5(1H)-one], the IC50 is not above 0.5 µM.
As for `C[C@H](O)CNC(=O)c1cnccc1Nc1cc(-c2cc(Cl)ccc2F)c(=O)n2c1N(C)CC2` [Compound 1.19, (S)-4-((6-(5-chloro-2-fluorophenyl)-1-methyl-5-oxo-1,2,3,5-tetrahydroimidazo[1,2-a]pyridin-8-yl)amino)-N-(2-hydroxypropyl)nicotinamide], the IC50 was in the range of 2 to 5 µM.
As to `C[C@H](O)CNC(=O)c1cnccc1Nc1cc(-c2cc(Cl)ccc2F)c(=O)n2c1N(C)CCC2` [Compound 1.20, (S)-4-((7-(5-chloro-2-fluorophenyl)-1-methyl-6-oxo-1,3,4,6-tetrahydro-2H-pyrido[1,2-a]pyrimidin-9-yl)amino)-N-(2-hydroxypropyl)nicotinamide], the IC50 was more than 5 µM.
Consider `C[C@@H](CO)NC(=O)c1cnccc1Nc1cc(-c2cc(Cl)ccc2F)c(=O)n2c1N(C)CCC2` [Compound 1.21, (S)-4-((7-(5-chloro-2-fluorophenyl)-1-methyl-6-oxo-1,3,4,6-tetrahydro-2H-pyrido[1,2-a]pyrimidin-9-yl)amino)-N-(1-hydroxypropan-2-yl)nicotinamide], for which the IC50 was 0.5 to 2 µM.
In the case of `C[C@@H](CO)NC(=O)c1cnccc1Nc1cc(-c2cc(Cl)ccc2F)c(=O)n2c1N(C)CC2` [Compound 1.22, (S)-4-((6-(5-chloro-2-fluorophenyl)-1-methyl-5-oxo-1,2,3,5-tetrahydroimidazo[1,2-a]pyridin-8-yl)amino)-N-(1-hydroxypropan-2-yl)nicotinamide], the IC50 lay within 2 to 5 µM.
For `C[C@H](CO)NC(=O)c1cnccc1Nc1cc(-c2cc(Cl)ccc2F)c(=O)n2c1N(C)CC2` [Compound 1.23, (R)-4-((6-(5-chloro-2-fluorophenyl)-1-methyl-5-oxo-1,2,3,5-tetrahydroimidazo[1,2-a]pyridin-8-yl)amino)-N-(1-hydroxypropan-2-yl)nicotinamide], the IC50 is more than 5 µM.
Regarding `C[C@@H](O)CNC(=O)c1cnccc1Nc1cc(-c2cc(Cl)ccc2F)c(=O)n2c1N(C)CC2` [Compound 1.24, (R)-4-((6-(5-chloro-2-fluorophenyl)-1-methyl-5-oxo-1,2,3,5-tetrahydroimidazo[1,2-a]pyridin-8-yl)amino)-N-(2-hydroxypropyl)nicotinamide], the IC50 was more than 5 µM.
`C[C@H](CO)NC(=O)c1cnccc1Nc1cc(-c2cc(Cl)ccc2F)c(=O)n2c1N(C)CCC2` [Compound 1.25, (R)-4-((7-(5-chloro-2-fluorophenyl)-1-methyl-6-oxo-1,3,4,6-tetrahydro-2H-pyrido[1,2-a]pyrimidin-9-yl)amino)-N-(1-hydroxypropan-2-yl)nicotinamide]: the IC50 was more than 5 µM.
In the case of `C[C@@H](O)CNC(=O)c1cnccc1Nc1cc(-c2cc(Cl)ccc2F)c(=O)n2c1N(C)CCC2` [Compound 1.26, (R)-4-((7-(5-chloro-2-fluorophenyl)-1-methyl-6-oxo-1,3,4,6-tetrahydro-2H-pyrido[1,2-a]pyrimidin-9-yl)amino)-N-(2-hydroxypropyl)nicotinamide], the IC50 was more than 5 µM.
Then `Cc1cccc(-c2cc(Nc3ccncc3C(=O)NC[C@H](C)O)c(N(C)C)[nH]c2=O)n1` [Compound 1.27, (S)-4-((6′-(dimethylamino)-6-methyl-2′-oxo-1′,2′-dihydro-[2,3′-bipyridin]-5′-yl)amino)-N-(2-hydroxypropyl)nicotinamide], with more than 5 µM.

The IC50 is the point on the concentration scale where inhibition reaches its midpoint.

These data come from patent publication US20200247812A1 (Integral Biosciences Private Limited, priority 2018, published 2020).
